Laboratory results from patent US10300052B2, “Methods for increasing CFTR activity” (THE UAB RESEARCH FOUNDATION, priority 2012, dated 2019).

Experiments:
[1] = system: CFBE41o-cells without WT CFTR complementation (parental cells); experiment: Short-circuit current (Isc) in Ussing chambers, parental CFBE41o- cells without detectable CFTR expression; format: cell-based, human; settings: ivacaftor 10 μM after amiloride 100 μM and forskolin 100 nM; parental cells without detectable CFTR expression (FIG. 1A)
Method: CFBE41o-cells complemented by stable expression of WT-CFTR (by a lentivirus promoter) are shown in comparison to CFBE41o-cells without WT CFTR complementation (parental cells). *P<0.05, **P<0.005, n=5/condition.
The CFTR potentiator ivacaftor was chosen as an exemplary CFTR activator. The activity of ivacaftor was examined in WT-CFTR expressing cells.
Short-circuit current (Isc) was measured under voltage clamp conditions using MC8 voltage clamps and P2300 Ussing chambers (Physiologic Instruments, San Diego, Calif.) as previously described (2). Monolayers were initially bathed on both sides with identical Ringer's solutions containing (in mM) 115 NaCl, 25 NaHCO3, 2.4 KH2PO4, 1.24 K2HPO4, 1.2 CaCl2, 1.2 MgC2, 10 D-glucose (pH 7.4). Bath solutions were vigorously stirred and gassed with 95%02:5% CO2. Short-circuit current measurements were obtained using an epithelial voltage clamp (Physiologic Instruments). A one-second three-mV pulse was imposed every 10 seconds to monitor resistance calculated using Ohm's law. Where indicated, the mucosal bathing solution was changed to a low Cl-solution containing 1.2 NaCl and 115 Na+ gluconate, and all other components as above. Amiloride (100 μM) was added to block residual Na+ current, followed by the agonists forskolin, ivacaftor, and ATP as indicated (minimum five-min observation at each concentration). […]

CFTR = target: T1, CFTR (Homo sapiens, UniProt P13569); experiment: Isc under voltage clamp in normal explanted human trachea; settings: ivacaftor 10 μM after amiloride 100 μM and forskolin 100 nM, voltage clamp (FIGS. 3A, 3B)
T1 construct: from tissue; host or cells: normal human trachea/bronchus from donor explant organs
Method: Serial addition of amiloride (100 μM), forskolin (100 nM), and ivacaftor (VX-770; 10 μM) or vehicle control is shown, followed by addition of ATP (10 μM), and CFTR Inh-172 (10 μM×2) as control additions.
The change in Isc following addition of ivacaftor (VX-770) or vehicle control is shown. *P<0.05, n=19, 24 samples/condition.
Ivacaftor also potentiated CFTR-dependent current in normal explanted human trachea examined under voltage clamp conditions (FIGS. 3A and B).
(§1) Samples of human trachea tissue were obtained from normal donor explant organs not selected for lung transplantation. Lung, mainstem bronchi, and trachea were resected en-bloc, transferred on wet ice, and large airways excised. Airway tissues were then immersed in ice cold DMEM following resection for transfer, then allowed to equilibrate to room temperature prior to mOCT imaging.
Short-circuit current (Isc) was measured under voltage clamp conditions using MC8 voltage clamps and P2300 Ussing chambers (Physiologic Instruments, San Diego, Calif.) as previously described (2). Monolayers were initially bathed on both sides with identical Ringer's solutions containing (in mM) 115 NaCl, 25 NaHCO3, 2.4 KH2PO4, 1.24 K2HPO4, 1.2 CaCl2, 1.2 MgC2, 10 D-glucose (pH 7.4). […] A one-second three-mV pulse was imposed every 10 seconds to monitor resistance calculated using Ohm's law. […]

human bronchial tissue = experiment: μOCT imaging of airway epithelial function in human bronchial tissue
Method: FIGS. 6A-6C show the effects of CFTR activators on airway epithelial function in human bronchial tissue by μOCT. FIGS. 6A-6C show ASL depth (FIG. 6A), CBF (FIG. 6B) and MCT (FIG. 6C), respectively in response to ivacaftor treatment (10 μM).
To further investigate the role of CFTR activators in modulating airway epithelial cell function, CFTR activators were studied in combination with human bronchial tissue from a failed healthy donor. Human bronchial tissue was obtained and maintained as described herein. Control experiments were performed with the human bronchial tissue being exposed to DMSO control only (0.2%) and compared to ivacaftor treatment. FIGS. 6A-6C show ASL depth, CBF and MCT, respectively.
as §1
The μOCT system is a spectral-domain OCT implementation with several improvements to standard OCT that yield high resolution in both lateral and axial directions. The general layout and axial resolution characterization have been described (Liu et al., PLOSOne, 8(1), E54473-2013). A super-continuum source (Fianium SC450) provides the high-bandwidth, short coherence length light necessary for high axial resolution ([…]). […]
μOCT imaging was performed on various cells cultures with illumination incident on the apical side of the cells. […] ASL and PCL were measured directly from the thicknesses of the visible layers in the image with a correction applied for the index of refraction in the liquid (n=1.33). ASL and PCL were evaluated at 5 equally distributed regions of the image. CBF and MCT were determined from a time series of images. […] Up to 10 regions of ciliary activity per image sequence were assessed for CBF. […]

T1 sequence (P13569 whole entry): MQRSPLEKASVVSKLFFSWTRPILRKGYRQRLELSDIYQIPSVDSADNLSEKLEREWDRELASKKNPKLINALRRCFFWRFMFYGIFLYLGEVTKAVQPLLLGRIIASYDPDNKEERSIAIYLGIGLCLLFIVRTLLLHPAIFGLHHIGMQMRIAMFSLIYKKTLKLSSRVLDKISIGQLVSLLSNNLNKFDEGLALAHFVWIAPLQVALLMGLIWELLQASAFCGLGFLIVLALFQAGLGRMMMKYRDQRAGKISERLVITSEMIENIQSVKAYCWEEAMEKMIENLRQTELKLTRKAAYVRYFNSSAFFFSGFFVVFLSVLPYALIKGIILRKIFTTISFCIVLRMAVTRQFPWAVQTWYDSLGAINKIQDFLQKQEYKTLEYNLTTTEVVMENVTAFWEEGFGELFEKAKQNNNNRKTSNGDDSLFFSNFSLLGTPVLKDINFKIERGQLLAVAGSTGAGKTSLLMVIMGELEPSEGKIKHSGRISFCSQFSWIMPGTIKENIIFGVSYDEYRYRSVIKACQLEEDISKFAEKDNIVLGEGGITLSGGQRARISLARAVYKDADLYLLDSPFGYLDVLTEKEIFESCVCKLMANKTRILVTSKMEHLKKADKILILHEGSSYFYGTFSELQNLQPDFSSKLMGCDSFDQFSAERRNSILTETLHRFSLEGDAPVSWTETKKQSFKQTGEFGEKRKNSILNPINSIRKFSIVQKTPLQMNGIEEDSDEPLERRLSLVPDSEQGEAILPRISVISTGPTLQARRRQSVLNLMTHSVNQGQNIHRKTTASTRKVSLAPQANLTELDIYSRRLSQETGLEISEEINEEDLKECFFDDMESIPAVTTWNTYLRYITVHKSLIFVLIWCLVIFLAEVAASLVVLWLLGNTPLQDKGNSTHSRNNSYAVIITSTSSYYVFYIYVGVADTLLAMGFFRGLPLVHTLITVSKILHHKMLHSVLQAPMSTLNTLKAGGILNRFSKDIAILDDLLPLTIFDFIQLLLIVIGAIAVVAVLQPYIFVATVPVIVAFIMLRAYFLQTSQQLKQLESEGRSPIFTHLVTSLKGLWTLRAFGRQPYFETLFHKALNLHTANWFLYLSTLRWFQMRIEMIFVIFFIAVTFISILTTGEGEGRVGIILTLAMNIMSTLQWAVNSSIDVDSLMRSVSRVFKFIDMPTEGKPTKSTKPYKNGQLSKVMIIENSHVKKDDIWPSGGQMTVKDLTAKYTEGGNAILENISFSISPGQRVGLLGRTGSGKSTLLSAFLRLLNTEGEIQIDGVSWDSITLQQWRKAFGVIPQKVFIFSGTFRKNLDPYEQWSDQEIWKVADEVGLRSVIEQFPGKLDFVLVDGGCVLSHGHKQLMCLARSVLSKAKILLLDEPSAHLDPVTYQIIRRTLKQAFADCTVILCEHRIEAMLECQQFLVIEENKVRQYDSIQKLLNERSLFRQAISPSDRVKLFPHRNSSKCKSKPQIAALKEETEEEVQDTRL

CFTR-dependent current (CFTR): potentiated
Compound: CC(C)(C)c1cc(C(C)(C)C)c(NC(=O)c2c[nH]c3ccccc3c2=O)cc1O [ivacaftor]
anion transport (Isc) [1]: no activity | CBF frequency (human bronchial tissue; ivacaftor 10 μM vs DMSO control (FIG. 6B)): significantly increased | ASL depth (human bronchial tissue; ivacaftor 10 μM, DMSO control approximately 10 microns (FIG. 6A)): approximately 30 microns | MCT (human bronchial tissue; ivacaftor 10 μM, control less than 0.01 mm/min (FIG. 6C)): ~0.04 mm/min
